The text below walks through data of patent US7132504B2, “Hepatitis C virus inhibitors” (Bristol-Myers Squibb Company, priority 2003, dated 2006).

Assay [1] has as its system HCV replicon in Huh7 cells. The assay is described as follows: HCV replicon cell-based assay (FRET). Details: species or system HCV strain 1b. The following applies: Hepatitis C virus. The source says: An HCV replicon whole cell system was established as described by Lohmann V, Korner F, Koch J, Herian U, Theilmann L, Bartenschlager R., Science 285(5424):110–3 (1999). This system enabled us to evaluate the effects of our HCV Protease compounds on HCV RNA replication. Briefly, using the HCV strain 1b sequence described in the Lohmann paper (Assession number:AJ238799), an HCV cDNA was generated encoding the 5′ internal ribosome entry site (IRES), the neomycin resistance gene, the EMCV (encephalomyocarditis viurs)-IRES and the HCV nonstructural proteins, NS3–NS5B, and 3′ non-translated region (NTR). In vitro transcripts of the cDNA were transfected into the human hepatoma cell line, Huh7. […] Resulting cell lines were characterized for positive and negative strand RNA production and protein production over time.
Huh7 cells, constitutively expressing the HCV replicon, were grown in Dulbecco's Modified Eagle Media (DMEM) containing 10% Fetal calf serum (FCS) and 1 mg/ml G418 (Gibco-BRL). Cells were seeded the night before (1.5×10^4 cells/well) in 96-well tissue-culture sterile plates. Compound and no compound controls were prepared in DMEM containing 4% FCS, 1:100 Penicillin/Streptomysin, 1:100 L-glutamine and 5% DMSO in the dilution plate (0.5% DMSO final concentration in the assay). Compound/DMSO mixes were added to the cells and incubated for 4 days at 37° C. After 4 days, plates were rinsed thoroughly with Phosphate-Buffered Saline (PBS) (3 times 150 μl). The cells were lysed with 25 μl of a lysis assay reagent containing the FRET peptide (RET S1, as described for the in vitro enzyme assay). The lysis assay reagent was made from 5× cell Luciferase cell culture lysis reagent (Promega #E153A) diluted to 1× with distilled water, NaCl added to 150 mM final, the FRET peptide diluted to 10 μM final from a 2 mM stock in 100% DMSO. The plate was then placed into the Cytofluor 4000 instrument which had been set to 340 nm excitation/490 nm emission, automatic mode for 21 cycles and the plate read in a kinetic mode. EC50 determinations were carried out as described for the IC50 determinations. […]
The percentage inhibition was calculated using the formula below: […]
The values were graphed and analyzed using XLFit to obtain the EC50 value.

For assay [2], the target named is T1, human neutrophil elastase (HNE) (Homo sapiens, UniProt P08246).
T1 construct: purchased Sigma
T1 sequence (P08246 30-267): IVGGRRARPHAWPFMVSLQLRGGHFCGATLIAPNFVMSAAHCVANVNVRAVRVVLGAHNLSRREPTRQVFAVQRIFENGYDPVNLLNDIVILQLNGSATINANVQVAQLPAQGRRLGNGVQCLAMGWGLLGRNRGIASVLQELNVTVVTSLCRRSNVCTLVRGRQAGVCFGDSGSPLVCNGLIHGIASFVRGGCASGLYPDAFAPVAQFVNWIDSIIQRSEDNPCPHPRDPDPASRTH
As to the kind of experiment: Specificity assay, human neutrophil elastase. It is filed as biochemical. As to conditions: 2 h enzyme-inhibitor pre-incubation. The protocol:
(§1) The specificities of compounds of the present invention were determined against a variety of serine proteases: human neutrophil elastase (HNE), porcine pancreatic elastase (PPE) and human pancreatic chymotrypsin and one cysteine protease: human liver cathepsin B. In all cases a 96-well plate format protocol using colorimetric p-nitroaniline (pNA) substrate specific for each enzyme was used as described previously (PCT Patent Application No. WO 00/09543) with some modifications to the serine protease assays. All enzymes were purchased from Sigma while the substrates were from Bachem.
(§2) Each assay included a 2 h enzyme-inhibitor pre-incubation at room temperature followed by addition of substrate and hydrolysis to ˜30% conversion as measured on a Spectramax Pro microplate reader. Compound concentrations varied from 100 to 0.4 μM depending on their potency. […]
(§3) The percentage of inhibition was calculated using the formula: [1−((UVinh−UVblank)/(UVctl−UVblank))]×100 […]

Assay [3] addresses T2, porcine pancreatic elastase (PPE) (Sus scrofa, UniProt P00772).
T2 construct: purchased Sigma
The assay is described as follows: Specificity assay, porcine pancreatic elastase. As to conditions: 2 h enzyme-inhibitor pre-incubation. It is filed as biochemical. The protocol: as §1, §2, §3

In a further assay the target is T3, human liver cathepsin B (Homo sapiens, UniProt P07858).
T3 construct: purchased Sigma; host or cells: human liver
As to the kind of experiment: Specificity assay, cathepsin B. Format: biochemical. The following applies: assay interference at higher concentrations. How it is done:
as §1, §2, §3

Like-named read-outs stand apart in the source and are kept apart here.

T2 sequence (P00772 27-266): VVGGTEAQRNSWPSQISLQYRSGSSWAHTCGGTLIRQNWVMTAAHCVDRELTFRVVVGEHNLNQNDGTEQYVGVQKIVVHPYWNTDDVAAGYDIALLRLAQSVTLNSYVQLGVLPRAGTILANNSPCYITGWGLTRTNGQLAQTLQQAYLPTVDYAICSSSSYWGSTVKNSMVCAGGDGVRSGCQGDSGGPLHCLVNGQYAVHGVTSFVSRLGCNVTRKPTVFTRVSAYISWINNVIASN

Take `C=CC1C[C@]1(NC(=O)[C@@H]1C[C@@H](Oc2cc(-c3ccccc3)nc3cc(OC)ccc23)CN1C(=O)[C@@H](NC(=O)OC)C(C)(C)C)C(=O)NS(=O)(=O)N(C)Cc1ccccc1` (some centres unmarked) [Compound 9]: the EC50 was 0.15 to 1.5 µM in assay [1] (Huh-7, 96 h, 4 days, read-out: Activity Range EC50) and 0.403 µM in assay [1] (Huh-7, read-out: EC50 value in the replicon assay). Further, the IC50 in assay [2] was 46 µM; in assay [3] it was greater than 200 µM; against human liver cathepsin B, greater than 50 µM.
